“Also recorded” adds a separate entry of the source. Where a name gives a salt, the structure may show the parent alone. Read-outs that look alike come from different tables or passages of the source.
Legend:
[1] = Elevated temperature storage stability in dry form (potency loss or gain by HPLC); format: physicochemical; conditions: for degraded at 24 h: 1 day
Method: Elevated temperature stabilities were determined by storing the preparations in dry containers at temperatures and for time periods as denoted below and potency losses or gains were determined by HPLC. A % potency gain is indicated by a plus sign in front of a figure. A less than 10% potency loss over a 2 to 4 week period at 45-56 deg. C. is usually indicative of less than 10% potency loss over a 2-3 year period at room temperature.

Solubility in water = format: physicochemical; conditions: for solubility in water (in words): for typical injectable compositions
[2] = dry powder, 45 deg. C. and above, even one week; 10080 min; cited from earlier work
various organisms = conditions: Aburaki et al. U.S. Pat. No. 4,406,899; listed as zwitterion form; cited from earlier work
[3] = Formation of insoluble particles on storage; format: physicochemical; conditions: storage at elevated temperatures
Text: The dihydrochloride dihydrate described in Example XIII can be easily dried to give the same dihydrochloride monohydrate described in Examples XI and XII. […] Accordingly, the monohydrate carrying up to about 1% by weight of adventitious water is the preferred form (total water content ca. 2.5-4.1%).

[4] = Weight loss on drying of the hydrate; format: physicochemical; conditions: 57° C., 0.001 mm Hg over P2 O5, 5 days; or 45° C., 10 mm Hg, 2 days
Text: The foregoing procedures of Examples XI and XII routinely produce monohydrate having a water content in the range of 2.46% to 3.70% with an average value of 3.31%. The value calculated from the stoichiometric formula is 3.15%.

[5] = 45 Deg. C., 1 week, dry container, + = potency gain, 10080 min
[6] = 45 Deg. C., 4 weeks, dry container, + = potency gain, 40320 min
[7] = 56 Deg. C., 1 week, dry container, + = potency gain, 10080 min
[8] = 56 Deg. C., 2 weeks, dry container, + = potency gain, 20160 min
[9] = dry solid, 45 Deg. C., 2 weeks, dry container, + = potency gain, read-out: PERCENT LOSS (potency)
[10] = dry solid, 100 Deg. C., dry container, + = potency gain, read-out: PERCENT LOSS (potency)
[11] = 45 Deg. C., 2 weeks, dry container, + = potency gain, 20160 min
[12] = 45 Deg. C., 6 weeks, dry container, + = potency gain, 60480 min
[13] = listed as di-nitric acid addition salt
[14] = listed as sulfuric acid addition salt, sulfate salt

CO/N=C(\C(=O)NC1C(=O)N2C(C(=O)[O-])=C(C[N+]3(C)CCCC3)CSC12)c1csc(N)n1 (stereo not drawn) [(H3 PO4)2 Salt, crystalline diphosphate salt of 7-[α-(2-aminothiazol-4-yl)-α-(Z)-methoxyiminoacetamido]-3-[(1-methyl-1-pyrrolidinio)methyl]-3-cephem-4-carboxylate]
PERCENT LOSS (potency) [1, 5]: 0%
PERCENT LOSS (potency) [1, 6]: 1.0%
PERCENT LOSS (potency) [1, 7]: 2.7%
PERCENT LOSS (potency) [1, 8]: 5.0%
degraded at 336 h [1, 9]: 3%
solubility in water (Solubility in water; listed as di-orthophosphoric acid addition salt): greater than 200 mg/ml

CO/N=C(\C(=O)NC1C(=O)N2C(C(=O)[O-])=C(C[N+]3(C)CCCC3)CSC12)c1csc(N)n1 (centres unmarked) [(HCl)2 Salt]
PERCENT LOSS (potency) [1, 5]: 0%
PERCENT LOSS (potency) [1, 6]: 7.4%
PERCENT LOSS (potency) [1, 7]: 0%
degraded at 672 h ([1]; dry solid, 56° C., 4 weeks, read-out: potency loss on storage): 7.2%
degraded at 24 h [1, 10]: 12.4%
solubility in water (Solubility in water; listed as di-hydrochloric acid addition salt): greater than 200 mg/ml

CO/N=C(\C(=O)NC1C(=O)N2C(C(=O)[O-])=C(C[N+]3(C)CCCC3)CSC12)c1csc(N)n1 (centres unmarked) [(HNO3)2 Salt]
PERCENT LOSS (potency) [1, 5]: 8.8%
PERCENT LOSS (potency) [1, 11]: 3.4%
PERCENT LOSS (potency) [1, 6]: 0.68%
PERCENT LOSS (potency) [1, 12]: 10.3%
PERCENT LOSS (potency) [1, 7]: 3.7%
PERCENT LOSS (potency) [1, 8]: 2.4%
solubility in water (in words) (Solubility in water; [13]): reduced solubilities which are insufficient for typical injectable compositions; also recorded: not sufficiently soluble to form compositions of normal concentration for administration
solubility in water (Solubility in water; [13]): about 60 mg/ml

CO/N=C(\C(=O)NC1C(=O)N2C(C(=O)[O-])=C(C[N+]3(C)CCCC3)CS[C@H]12)c1csc(N)n1 (stereo partly drawn) [H2 SO4 Salt, 7-[α-(2-aminothiazol-4-yl)-α-(Z)-methoxyiminoacetamido]-3-[(1-methyl-1-pyrrolidinio)methyl]-3-cephem-4-carboxylate sulfate salt]
PERCENT LOSS (potency) ([1]; 45 Deg. C., 1 week, dry container, + = potency gain, 10080 min, sulfate salt, 10080 min): 2.4 to +5%
PERCENT LOSS (potency) ([1]; 45 Deg. C., 2 weeks, dry container, + = potency gain, 20160 min, sulfate salt, 20160 min): 3%
PERCENT LOSS (potency) ([1]; 45 Deg. C., 4 weeks, dry container, + = potency gain, 40320 min, sulfate salt, 40320 min): +5%
PERCENT LOSS (potency) ([1]; 45 Deg. C., 6 weeks, dry container, + = potency gain, 60480 min, sulfate salt, 60480 min): 1.4%
PERCENT LOSS (potency) ([1]; 56 Deg. C., 1 week, dry container, + = potency gain, 10080 min, sulfate salt, 10080 min): 5 to +6%
PERCENT LOSS (potency) ([1]; 56 Deg. C., 2 weeks, dry container, + = potency gain, 20160 min, sulfate salt, 20160 min): +3%
PERCENT LOSS (potency) ([1]; 56 Deg. C., 4 weeks, dry container, + = potency gain, 40320 min, sulfate salt, 40320 min): 0 to +6%
degraded at 730 h ([1]; dry solid, 45-56 deg. C., one month): < 10%
solubility compared to the zwitterion form (Solubility in water): limited solubility
solubility in water (in words) (Solubility in water; [14]): reduced solubilities which are insufficient for typical injectable compositions; also recorded: not sufficiently soluble to form compositions of normal concentration for administration
solubility in water (Solubility in water; listed as crystalline sulfuric acid addition salt, sulfate salt): 25 mg/mL
solubility in water (Solubility in water; [14]): about 25 mg/ml

CO/N=C(\C(=O)NC1C(=O)N2C(C(=O)[O-])=C(C[N+]3(C)CCCC3)CSC12)c1csc(N)n1 (centres unmarked) [HCl Salt]
PERCENT LOSS (potency) [1, 5]: 4.8%
PERCENT LOSS (potency) [1, 11]: 2.3%
PERCENT LOSS (potency) [1, 6]: 6.0%
PERCENT LOSS (potency) [1, 12]: 6.4%
PERCENT LOSS (potency) [1, 7]: 6.4%
solubility in water (Solubility in water; listed as mono-hydrochloric acid addition salt): greater than 200 mg/ml

CO/N=C(\C(=O)NC1C(=O)N2C(C(=O)[O-])=C(C[N+]3(C)CCCC3)CSC12)c1csc(N)n1 (stereo not drawn) [Sesquiphosphate Salt, crystalline sesquiphosphate salt of 7-[α-(2-aminothiazol-4-yl)-α-(Z)-methoxyiminoacetamido]-3-[(1-methyl-1-pyrrolidinio)methyl]-3-cephem-4-carboxylate]
Stability, % Loss ([1]; 1 month, 37° C., 43200 min): 2.5%
Stability, % Loss ([1]; 1 week, 45° C., 10080 min): 0%
Stability, % Loss ([1]; 4 weeks, 56° C., 40320 min): 0%
Stability, % Loss ([1]; 3 days, 70° C.): 0%
degraded at 168 h ([1]; dry solid, 1 week, 56° C., read-out: Stability, % Loss): 1%
degraded at 336 h ([1]; dry solid, 2 weeks, 45° C., read-out: Stability, % Loss): 1.4%
degraded at 336 h ([1]; dry solid, 2 weeks, 56° C., read-out: Stability, % Loss): 1.4%
degraded at 672 h ([1]; dry solid, 4 weeks, 45° C., read-out: Stability, % Loss): 0.7%
degraded at 1344 h ([1]; dry solid, 8 weeks, 45° C.): 1.6%
degraded at 24 h ([1]; dry solid, 100° C., read-out: Stability, % Loss): 10.9%
degraded at 168 h ([1]; dry solid, 7 days, 70° C., read-out: Stability, % Loss): 1.9%
solubility in water (Solubility in water; listed as sesqui-orthophosphoric acid addition salt): greater than 200 mg/ml

CO/N=C(\C(=O)NC1C(=O)N2C(C(=O)[O-])=C(C[N+]3(C)CCCC3)CS[C@H]12)c1csc(N)n1 (stereo partly drawn) [Zwitterion, 7-[α-(2-aminothiazol-4-yl)-α-(Z)-methoxyiminoacetamido]-3-[(1-methyl-1-pyrrolidinio)methyl]-3-cephem-4-carboxylate, reference compound]
degraded at 168 h ([1]; dry solid, 45 Deg. C., 1 week, dry container, + = potency gain, read-out: PERCENT LOSS (potency)): 37%
degraded at 336 h [1, 9]: 51%
degraded at 672 h ([1]; dry solid, 45 Deg. C., 4 weeks, dry container, + = potency gain, read-out: PERCENT LOSS (potency)): 71%
degraded at 168 h ([1]; dry solid, 56 Deg. C., 1 week, dry container, + = potency gain, read-out: PERCENT LOSS (potency)): 57%
degraded at 24 h [1, 10]: 100%
loss of activity on storage [2]: ≥ 30%
spectrum of activity (various organisms): broader spectrum activity than ceftazidime and cefotaxime; also recorded: broad spectrum utility against various organisms

CO/N=C(\C(=O)NC1C(=O)N2C(C(=O)[O-])=C(C[N+]3(C)CCCC3)CSC12)c1csc(N)n1 (stereo not drawn) [dihydrate, dihydrate of 7-[α-(2-aminothiazol-4-yl)-α-(Z)-methoxyiminoacetamido]-3-[(1-methyl-1-pyrrolidinio)methyl]-3-cephem-4-carboxylate dihydrochloride]
formation of insoluble particles [3]: formation of trace amounts of insoluble particles was observed

CO/N=C(\C(=O)NC1C(=O)N2C(C(=O)[O-])=C(C[N+]3(C)CCCC3)CSC12)c1csc(N)n1 (stereo not drawn) [monohydrate, crystalline dihydrochloride monohydrate of 7-[α-(2-aminothiazol-4-yl)-α-(Z)-methoxyiminoacetamido]-3-[(1-methyl-1-pyrrolidinio)methyl]-3-cephem-4-carboxylate]
storage stability at elevated temperatures (chemical and biological potency) [1]: similar
degraded at 504 h ([1]; dry solid, 56° C., 3 weeks): 0.6%
remaining at 504 h ([1]; dry solid, 56° C., 3 weeks, total water content ca. 2.5-4.1%, read-out: retention of potency): ≥ 96%
loss in weight on drying [4]: no loss in weight

— patent US5244891A, “Injectable compositions of cefepime dihydrochloride hydrate” (priority 1992, dated 1993)
